Molecules are shown by their SMILES.

The test has as its system HCT116 colorectal cancer cells. As to the kind of experiment: Cisplatin sensitization assay (96 h cell viability MTS).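 Also: Test-compound concentration that lowers the Cisplatin IC50 by a set fold.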 The settings on record: compound and Cisplatin added simultaneously, Cisplatin sensitization value. Format: cell-based. An outline of the steps:
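Viability read by MTS (1 h at 37° C) after 96 h co-exposure at 37° C, 5% CO2. Test compound and cisplatin were dosed simultaneously in a full concentration matrix, each 2-fold serially diluted from 10 μM final; sensitization values binned in μM.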
As to `N#CCc1cnc2c(C(=O)Nc3cnccc3OCC3CC3)c(N)nn2c1` [I-O-32, 2-amino-6-(cyanomethyl)-N-(4-(cyclopropylmethoxy)pyridin-3-yl)pyrazolo[1,5-a]pyrimidine-3-carboxamide], the “Cisplatin Sensitization Assay” value was “+++ (Cisplatin sensitization value of <0.02 μM)”.

Turning to `N#CCc1cnc2c(C(=O)Nc3cnccc3OCCO)c(N)nn2c1` [I-O-33, 2-amino-6-(cyanomethyl)-N-(4-(2-hydroxyethoxy)pyridin-3-yl)pyrazolo[1,5-a]pyrimidine-3-carboxamide], the “Cisplatin Sensitization Assay” value is “++ (Cisplatin sensitization value>0.02 μM but <0.2 μM)”.

As for `N#CCc1cnc2c(C(=O)Nc3cnccc3OCC(F)(F)F)c(N)nn2c1` [I-O-34, 2-amino-6-(cyanomethyl)-N-(4-(2,2,2-trifluoroethoxy)pyridin-3-yl)pyrazolo[1,5-a]pyrimidine-3-carboxamide], the “Cisplatin Sensitization Assay” value is given as “++ (Cisplatin sensitization value>0.02 μM but <0.2 μM)”.

As for `CC(C)Oc1ccncc1NC(=O)c1c(N)nn2cc(CC#N)cnc12` [I-O-35, 2-amino-6-(cyanomethyl)-N-(4-isopropoxypyridin-3-yl)pyrazolo[1,5-a]pyrimidine-3-carboxamide], the “Cisplatin Sensitization Assay” value is given as “+++ (Cisplatin sensitization value of <0.02 μM)”.

In the case of `N#CCc1cnc2c(C(=O)Nc3cnccc3OC3CCC3)c(N)nn2c1` [I-O-36, 2-amino-6-(cyanomethyl)-N-(4-cyclobutoxypyridin-3-yl)pyrazolo[1,5-a]pyrimidine-3-carboxamide], the “Cisplatin Sensitization Assay” value was “+++ (Cisplatin sensitization value of <0.02 μM)”.

Turning to `N#CCc1cnc2c(C(=O)Nc3cnccc3OC3COC3)c(N)nn2c1` [I-O-38, 2-amino-6-(cyanomethyl)-N-(4-(oxetan-3-yloxy)pyridin-3-yl)pyrazolo[1,5-a]pyrimidine-3-carboxamide], the “Cisplatin Sensitization Assay” value is reported as “+++ (Cisplatin sensitization value of <0.02 μM)”.

Consider `N#CCc1cnc2c(C(=O)Nc3cnccc3OC3CCCCC3)c(N)nn2c1` [I-O-39, 2-amino-6-(cyanomethyl)-N-(4-(cyclohexyloxy)pyridin-3-yl)pyrazolo[1,5-a]pyrimidine-3-carboxamide], for which the “Cisplatin Sensitization Assay” value is “+++ (Cisplatin sensitization value of <0.02 μM)”.

With `N#CCc1cnc2c(C(=O)Nc3cnccc3OCCCO)c(N)nn2c1` [I-O-40, 2-amino-6-(cyanomethyl)-N-(4-(3-hydroxypropoxy)pyridin-3-yl)pyrazolo[1,5-a]pyrimidine-3-carboxamide], the “Cisplatin Sensitization Assay” value is “++ (Cisplatin sensitization value>0.02 μM but <0.2 μM)”.

`N#CCc1cnc2c(C(=O)Nc3cnccc3OC3CCCOC3)c(N)nn2c1` (stereo not drawn) [I-O-41, 2-amino-6-(cyanomethyl)-N-(4-((tetrahydro-2H-pyran-3-yl)oxy)pyridin-3-yl)pyrazolo[1,5-a]pyrimidine-3-carboxamide]: the “Cisplatin Sensitization Assay” value is “+++ (Cisplatin sensitization value of <0.02 μM)”.

Consider `N#CCc1cnc2c(C(=O)Nc3cnccc3O[C@H]3CCOC3)c(N)nn2c1` [I-O-42, (S)-2-amino-6-(cyanomethyl)-N-(4-((tetrahydrofuran-3-yl)oxy)pyridin-3-yl)pyrazolo[1,5-a]pyrimidine-3-carboxamide], for which the “Cisplatin Sensitization Assay” value is “+++ (Cisplatin sensitization value of <0.02 μM)”.

Consider `N#CCc1cnc2c(C(=O)Nc3cnccc3OC3CCCC3)c(N)nn2c1` [I-O-43, 2-amino-6-(cyanomethyl)-N-(4-(cyclopentyloxy)pyridin-3-yl)pyrazolo[1,5-a]pyrimidine-3-carboxamide], for which the “Cisplatin Sensitization Assay” value is recorded as “+++ (Cisplatin sensitization value of <0.02 μM)”.

Take `Nc1nn2cc(F)cnc2c1C(=O)Nc1cnccc1OC1CC[S+]([O-])CC1` (stereo not drawn) [I-O-44, 2-amino-6-fluoro-N-(4-((1-oxidotetrahydro-2H-thiopyran-4-yl)oxy)pyridin-3-yl)pyrazolo[1,5-a]pyrimidine-3-carboxamide]: the “Cisplatin Sensitization Assay” value is “++ (Cisplatin sensitization value>0.02 μM but <0.2 μM)”.
